The text below walks through data of paper PMC3836906 (Cancer chemotherapy and pharmacology, 2013).

Data set [1] is described as follows: in vivo. Particulars: CD2F1, mouse, iv, 20 mg/kg.
For data set [2] the following is noted: in vivo.
A short description of data set [3]: in vivo. The note with it: CD2F1, mouse, iv, 20 mg/kg. The source holds these as a separate data set.
The conditions of data set [4]: mouse, in vivo.
Data set [5] deals with human 786-0 renal cell tumors. Particulars: mouse, in vivo; cited from earlier work.
Data set [6] deals with renal carcinoma cells. The note with it: cited from earlier work.
In data set [7] the test system is A498 human renal cell cancer xenografts. The note with it: in vivo; cited from earlier work.
Data set [8] relates to human ACHN renal cell tumors. Particulars: mouse, in vivo; cited from earlier work.
Data set [9] has as its system cell cycle. Particulars: cited from earlier work.
Data set [10] has as its system mice. Particulars: mouse, in vivo.
Data set [11] relates to human RXF-393 renal carcinoma cell xenografts. The note with it: mouse, in vivo; cited from earlier work.
Data set [12] concerns liver ALDH. The note with it: mouse, in vivo, ip, 300 mg/kg; cited from earlier work.
Data set [13] deals with mice. Particulars: mouse, in vivo. The source holds these as a separate data set.
For data set [14], the system named is RBC ALDH. Particulars: mouse, in vivo, ip, 300 mg/kg; cited from earlier work.
In data set [15] the test system is ALDH1B1. Particulars: cited from earlier work.

Several values for one entry are separate records, joined by “and”; a condition that tells them apart may be missing. Equal values may be shown once. Read-outs that look alike come from different tables or passages of the source.

As to `Cc1cc(N(CCO)CCO)ccc1C(=O)O` [BA-(OH)2, 4-[bis[2-hydroxy-ethyl]amino]-2-methyl-benzoic acid], in data set [1] (plasma), the Tmax – broadly, the time from dosing to the highest level – is 10 min. Also, the half-life (in general, the time in which the quantity being followed falls by half) in data set [1] (plasma, Half-life, BEN 20 mg/kg iv alone) turned out to be 29 min. Also, in data set [2] (mouse), the Cl/F is 1.90 mL/min/kg and 1.20 mL/min/kg; the time of peak concentration (Tmax) was 10 min; the Vd/F (commonly the volume of distribution divided by bioavailability) is 83 L/kg and 60 L/kg.

In data set [3], `Cc1cc(N(CCOS(C)(=O)=O)CCOS(C)(=O)=O)ccc1C=O` [BEN, 4-[bis[2-[(methylsulfonyl)-oxy]ethyl]amino]-2-methyl-benzaldehyde] showed a CL renal of 0.4 mL/min. In addition, the Tmax in data set [1] (in vivo) is 5 min. Moreover, in [4], the Body weight loss entry was “approximately 12%”. Also, the Anti-tumor activity result in data set [5] was “significant activity”. The “Activity in NCI 60 cell line screen” value in [6] is on record as “specific activity”. In addition, the “Effect on xenograft growth” value in data set [7] was “slowed the growth”. Further, the Anti-tumor activity entry in [8] is listed as “significant activity”. The Cell cycle effect result in [9] is “S and G2/M cell cycle arrest”. Moreover, in data set [2] (CD2F1, mouse), the “Increase of BEN plasma exposure by disulfiram pretreatment” value was determined as 368 fold and the “Time after administration at which analyte became undetectable in plasma” value came to 15 min. Moreover, in data set [2] (CD2F1, mouse, iv, 20 mg/kg), the Cl/F is 0.18 mL/min/kg, the Tmax is given as 5 min and the Vd/F amounted to 120 L/kg. In data set [10], the “Day after dosing by which blood values returned to normal” value is at most 14 days; the “Effect of disulfiram pretreatment on percentage lymphocytes nadir” value is “appeared to deepen”; the “Hematocrits, white blood cells and percent lymphocytes following treatment” value was “decreased”. Also, the Cure rate in data set [11] was above 70%.

In the case of `CS(=O)(=O)OCCCCOS(C)(=O)=O` [busulfan, reference compound], in data set [11], the Anti-tumor activity result was “no activity”.

Take `CCN(CC)C(=S)SSC(=S)N(CC)CC` [disulfiram, Tetraethylthiuram disulfide]: the “Reduction of ALDH activity in liver compared to controls” value in data set [12] is 27%. In [4], the Body weight loss entry was “approximately 12%”. The Hepatic pathology result in data set [13] is “mild hepatic lesions”. The “Reduction of ALDH activity in RBC compared to controls” value in data set [14] is listed as 81%. Moreover, the “Sensitivity of ALDH1B1 to inhibition” value in [15] was “insensitive to inhibition”.
